Assay results: patent EP2647638A1, “Substituted tricyclic compounds with activity towards ep1 receptors” (Almirall, S.A., priority 2012, dated 2013)

Biological target: T1, human EP1 receptor (Homo sapiens, UniProt P34995)
T1 construct: expressed in transfected cells; host or cells: HEK-293 cell membranes
T1 sequence (P34995 1-402): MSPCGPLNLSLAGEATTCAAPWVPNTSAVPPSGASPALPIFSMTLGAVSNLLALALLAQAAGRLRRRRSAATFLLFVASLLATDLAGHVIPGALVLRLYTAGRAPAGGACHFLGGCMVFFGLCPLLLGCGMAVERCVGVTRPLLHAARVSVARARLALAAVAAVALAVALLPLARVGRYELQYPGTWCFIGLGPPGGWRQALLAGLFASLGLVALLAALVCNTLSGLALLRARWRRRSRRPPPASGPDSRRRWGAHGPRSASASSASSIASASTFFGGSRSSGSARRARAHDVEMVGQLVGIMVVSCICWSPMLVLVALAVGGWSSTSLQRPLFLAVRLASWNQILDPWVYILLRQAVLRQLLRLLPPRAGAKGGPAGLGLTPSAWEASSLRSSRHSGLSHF
Assay: Human EP1 receptor radioligand binding assay
Settings: transfected HEK-293 cell membranes, [3H]-PGE2 (10 nM), pH 6.0, 25 °C for 60 minutes
Experimental: To investigate binding properties of EP1 receptor ligands to human EP1 receptor, transfected HEK-293 cell membranes and [3H]-PGE2 (Perkin Elmer) were used. In 96-well plates the assay was carried out with a total reaction volume of 250 µl, containing 25 µl of membrane suspension (30 µg protein/well), 25 µl of [3H]-PGE2 (10 nM) in either absence or presence of 25 µl of either buffer or PGE2 (10 µM) for total and non-specific binding, respectively. Binding buffer contained 10 mM MES, 1 mM MgCl2 and 1 mM EDTA at pH 6.0. Plates were incubated at 25 °C for 60 minutes. After the incubation period, 200 µl of incubate were transferred to MultiScreen HTS, FB plates (Millipore), filtered and plates were washed 6 times with ice-cold 10 mM MES, 1 mM MgCl2 and 1 mM EDTA at pH 6.0. Filters were dried and counted in a MicroBeta scintillation counter (Perkin-Elmer) using EcoScint liquid scintillation cocktail.
Percentage inhibition was calculated relating compounds activity to the 0% inhibition of the wells incubated with 10 nM [3H]-PGE2 alone (total binding) and 100% inhibition of the wells incubated with 10 nM [3H]-PGE2 plus 10 µM PGE2 (non-specific binding). Competition binding curves were carried out by assaying 6 different concentrations with duplicated points. The inhibition constant (Ki) of each compound was calculated by the Cheng-Prusoff equation: Kl = IC50 /(1+⌊L⌋/KD) [formula] where IC50 is the concentration of compound that displaces the binding of radioligand by 50%, [L] is the free concentration of radioligand and KD is the dissociation constant of each radioligand. IC50 values were obtained by fitting the data with non-linear regression using XIFit software (IDBS).

Ki [µM]	Structure (SMILES)
0.1 to 0.5	Cc1ccc2c(c1)[C@@H]1OCCC[C@@H]1[C@H](c1ccc(C(=O)O)cc1C)N2 [Example 6, 4-((4aR, 5R, 10bR)-3,4,4a, 5,6, 10b-hexahydro-9-methyl-2H pyrano[3,2-c]quinolin-5-yl)-3-methylbenzoic acid]
> 0.5	O=C(O)c1ccc([C@@H]2Nc3ccc(Br)cc3[C@@H]3OCCC[C@H]23)cc1 [Example 2, 4-((4aR,5R,10bR)-9-bromo-3,4,4a,5,6,10b-hexahydro-2H-pyrano[3,2-c]quinolin-5-yl)benzoic acid]
0.1 to 0.5	COc1ccc2c(c1)[C@@H]1OCCC[C@@H]1[C@H](c1ccc(C(=O)O)cc1C)N2 [Example 5, 4-((4aR, 5R, 10bR)-3,4,4a, 5,6, 10b-hexahydro-9-methoxy-2H pyrano[3,2-c]quinolin-5-yl)-3-methylbenzoic acid]
< 0.1	Cc1cc(C(=O)O)ccc1[C@H]1Nc2ccc(Cl)cc2[C@@H]2OCCC[C@H]12 (racemic) [Example 10, 4-((4aR, 5S, 10bR)-9-chloro-3,4,4a, 5,6, 10b-hexahydro-2H pyrano[3,2-c]quinolin-5-yl)-3-methylbenzoic acid]
